Measurements from US20140057915A1, “KINASE INHIBITORS” (TOPIVERT PHARMA LIMITED, priority 2012, published 2014).
Like-named read-outs stand apart in the source and are kept apart here.

Experiments:
IFN gamma release, PBMCs = assay: IFN gamma release in CD3/CD28 stimulated PBMC cells; format: cell-based; settings: Homo sapiens, read-out: IC50 Values for Inhibition of Cytokine Release, PBMCs, IFNγ
Protocol: (§1) (c) IL-2 and IFN Gamma Release in CD3/CD28 Stimulated PBMC Cells
(§2) PBMCs from healthy subjects are separated from whole blood using a density gradient (Lymphoprep, Axis-Shield Healthcare). Cells are added to a 96 well plate pre-coated with a mixture of […] monoclonal antibodies (0.3 ug/ml eBioscience and 3 ug/ml BD Pharmingen respectively). Compound at the desired concentration is then added to the wells and the plate left for 3 days under normal tissue culture conditions. Supernatants are harvested and IL-2 and IFN gamma release determined by Sandwich ELISA (Duo-set, R&D System). The IC50 is determined from the dose response curve.

IL-2 release, PBMCs = assay: IL-2 release in CD3/CD28 stimulated PBMC cells; format: cell-based; settings: Homo sapiens, read-out: IC50 Values for Inhibition of Cytokine Release, PBMCs, IL-2
Protocol: as §1, §2

[1] = tested on: TNFα release, d-U937 cells; assay: LPS-induced TNFα release in d-U937 cells; format: cell-based; settings: Homo sapiens, dU937; for IC50: Table 4c2, different laboratory, read-out: IC50 Values for Inhibition of Cytokine Release, dU937 cells, TNFα
Summary of the method: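 U937 cells differentiated with PMA (100 ng/mL, 48–72 hr), pre-treated with compound for 2 hr, then stimulated with E. coli LPS (0.1 μg/mL) for 4 hr. Supernatant cytokine measured by sandwich ELISA; inhibition versus vehicle control, REC50 from concentration-response curve.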

cSrc = cSrc (Homo sapiens, UniProt P12931); assay: c-Src enzyme inhibition (FRET); format: biochemical
Sequence of cSrc (P12931 whole entry): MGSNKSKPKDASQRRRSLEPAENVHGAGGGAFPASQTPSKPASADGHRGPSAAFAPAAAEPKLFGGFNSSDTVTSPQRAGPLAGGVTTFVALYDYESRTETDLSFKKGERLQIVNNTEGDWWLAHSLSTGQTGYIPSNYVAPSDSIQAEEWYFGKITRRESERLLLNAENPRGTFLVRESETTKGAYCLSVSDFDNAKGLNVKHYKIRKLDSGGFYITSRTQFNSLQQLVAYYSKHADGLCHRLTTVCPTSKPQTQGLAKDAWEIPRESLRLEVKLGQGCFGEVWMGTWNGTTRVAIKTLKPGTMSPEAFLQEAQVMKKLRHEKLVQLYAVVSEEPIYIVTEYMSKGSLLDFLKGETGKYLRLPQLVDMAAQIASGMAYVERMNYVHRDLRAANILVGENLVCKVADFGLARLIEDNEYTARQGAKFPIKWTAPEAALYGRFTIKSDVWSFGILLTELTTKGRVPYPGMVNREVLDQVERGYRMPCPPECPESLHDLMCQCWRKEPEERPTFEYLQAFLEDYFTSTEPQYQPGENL
Summary of the method: (§3)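 Kinase activity is measured on a dual-labelled synthetic peptide by FRET. ATP is supplied as an 800 μM solution for c-Src and a 60 μM solution for Syk. Compound is tested at four added concentrations, 4 to 0.004 μg/mL.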

IL-8 release, PBMCs = assay: LPS-induced IL-8 release in PBMC cells; format: cell-based; settings: Homo sapiens, LPS stimulated, read-out: IC50 Values for Inhibition of Cytokine Release, PBMCs, IL-8
Summary of the method: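 PBMCs from healthy donors pretreated with compound for 2 h, then stimulated with 1 ng/ml LPS (E. coli 0111:B4) for 24 h at 37 °C, 5% CO2. Supernatant IL-8 and TNFα measured by sandwich ELISA with fluorescence read-out.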

[2] = tested on: IL-8 release, d-U937 cells; assay: LPS-induced IL-8 release in d-U937 cells; format: cell-based; settings: Homo sapiens, dU937
Summary of the method: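 IL-8 release after a 4 hr challenge with LPS (0.1 μg/mL, E. coli 0111:B4) following a 2 hr compound pretreatment. Cells were human U937 monocytes differentiated to macrophage-type with PMA 100 ng/mL for 48–72 hr. Relative 50% effective concentration derived from concentration–response data.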

PBMC cells = assay: Cell mitosis assay; format: cell-based; settings: Homo sapiens, read-out: % Inhibition of mitosis in PBMC cells at 5 μg/mL
Protocol: PBMCs from healthy subjects are separated from whole blood (Quintiles, London, UK) using a density gradient (Histopaque®-1077, Sigma-Aldrich, Poole, UK). The PBMCs (3 million cells per sample) are subsequently treated with 2% PHA (Sigma-Aldrich, Poole, UK) for 48 hr, followed by a 20 hr exposure to varying concentrations of test compounds. At 2 hr before collection, PBMCs are treated with demecolcine (0.1 μg/mL; Invitrogen, Paisley, UK) to arrest cells in metaphase. […] Fluorescence is observed using an ATTUNE flow cytometer (Invitrogen, Paisley, UK), gating for lymphocytes.

Syk = Syk (Homo sapiens, UniProt P43405); assay: Syk enzyme inhibition (FRET); format: biochemical
Summary of the method: as §3

IL-8 release, HT29 cells = assay: IL-1β-induced IL-8 release in HT29 cells; format: cell-based; settings: Homo sapiens, HT-29; IL-1β stimulated; read-out: IC50 Values for Inhibition of Cytokine Release, HT29 cells, IL-8
Protocol: (d) IL-1β-Induced IL-8 Release in HT29 Cells
HT29 cells, a human colon adenocarcinoma cell line, are plated in a 96 well plate (24 hrs) and pre-treated with compounds at the desired concentration for 2 hours before addition of 5 ng/ml of IL-1β (Abeam) for 24 hours, Supernatants are harvested for IL-8 quantification by Sandwich ELISA (Duo-set, R&D System). The IC50 is determined from the dose response curve.

[3] = target: T1, human ether a go-go (hERG) channel (Homo sapiens, UniProt Q12809); assay: hERG inhibition (IonWorks patch clamp electrophysiology); format: cell-based; settings: maximum final assay concentration 3 μM
T1 construct: a Chinese Hamster Lung cell line stably expressing the full length hERG channel
T1 sequence (Q12809 whole entry): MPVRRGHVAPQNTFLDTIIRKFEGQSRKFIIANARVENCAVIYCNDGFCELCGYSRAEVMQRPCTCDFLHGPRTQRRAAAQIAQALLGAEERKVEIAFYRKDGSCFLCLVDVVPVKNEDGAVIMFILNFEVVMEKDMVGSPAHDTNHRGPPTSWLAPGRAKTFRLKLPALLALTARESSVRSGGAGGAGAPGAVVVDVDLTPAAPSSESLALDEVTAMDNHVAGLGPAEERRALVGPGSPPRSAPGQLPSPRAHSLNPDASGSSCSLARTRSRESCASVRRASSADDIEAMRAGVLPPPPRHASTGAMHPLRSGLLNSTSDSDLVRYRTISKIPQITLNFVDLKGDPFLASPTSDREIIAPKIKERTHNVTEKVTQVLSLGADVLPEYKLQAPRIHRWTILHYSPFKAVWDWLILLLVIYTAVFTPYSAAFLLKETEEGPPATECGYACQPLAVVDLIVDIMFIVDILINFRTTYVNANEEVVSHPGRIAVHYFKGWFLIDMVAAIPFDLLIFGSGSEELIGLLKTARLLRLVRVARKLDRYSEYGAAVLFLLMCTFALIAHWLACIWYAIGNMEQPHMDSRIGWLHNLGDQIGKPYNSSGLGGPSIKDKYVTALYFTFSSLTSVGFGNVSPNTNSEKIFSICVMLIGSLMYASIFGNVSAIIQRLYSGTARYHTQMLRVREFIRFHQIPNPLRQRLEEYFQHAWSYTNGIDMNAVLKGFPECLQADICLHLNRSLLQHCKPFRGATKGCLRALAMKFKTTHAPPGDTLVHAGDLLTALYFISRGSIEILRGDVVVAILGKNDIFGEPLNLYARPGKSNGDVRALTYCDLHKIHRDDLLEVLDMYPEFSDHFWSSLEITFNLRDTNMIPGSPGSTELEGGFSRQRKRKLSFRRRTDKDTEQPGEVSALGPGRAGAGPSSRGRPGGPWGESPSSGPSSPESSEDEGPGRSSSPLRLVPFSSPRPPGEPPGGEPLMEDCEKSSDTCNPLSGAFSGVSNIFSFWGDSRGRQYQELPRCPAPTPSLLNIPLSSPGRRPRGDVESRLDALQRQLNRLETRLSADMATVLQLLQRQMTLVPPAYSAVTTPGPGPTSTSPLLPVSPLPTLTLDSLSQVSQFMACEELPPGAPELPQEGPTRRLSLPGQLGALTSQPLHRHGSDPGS
Protocol: Eight-point concentration curves were generated using serial 3-fold dilutions from the maximum final assay concentration (3 μM). Electrophysiological recordings were made from a Chinese Hamster Lung cell line stably expressing the full length hERG channel. Single cell ionic currents were measured in the perforated patch clamp configuration (100 μg/mL) amphotericin) at room temperature (21-23° C.) using an IonWorks Quattro instrument. The internal solution contained (mM): 140 KCl, 1 MgCl2, 1 EGTA, 20 HEPES and was buffered to pH 7.3. The external solution contained (mM):138 NaCl, 2.7 KCl, 0.9 CaCl2, 0.5 MgCl2, 8 Na2HPO4, 1.5 KH2PO4, also buffered to pH 7.3. Cells were clamped at a holding potential of −70 mV for 30 s and then stepped to +40 mV for 1 s. This was followed by a hyperpolarising step of 1s to −30 mV to evoke the hERG tail current. This sequence was repeated 5 times at a frequency of 0.25 Hz. Currents were measured from the tail step at the 5th pulse, and referenced to the holding current. Compounds were then incubated for 6-7 minutes prior to a second measurement of the hERG signal using an identical pulse train. Eight-point concentration curves were generated using serial 3-fold dilutions from the maximum final assay concentration (3 μM).

GSK3α [4] = target: T2, GSK3α (Homo sapiens, UniProt P49840); assay: GSK 3α enzyme inhibition (FRET), Method 2; format: biochemical; settings: Table 4a2, different laboratory
T2 sequence (P49840 whole entry): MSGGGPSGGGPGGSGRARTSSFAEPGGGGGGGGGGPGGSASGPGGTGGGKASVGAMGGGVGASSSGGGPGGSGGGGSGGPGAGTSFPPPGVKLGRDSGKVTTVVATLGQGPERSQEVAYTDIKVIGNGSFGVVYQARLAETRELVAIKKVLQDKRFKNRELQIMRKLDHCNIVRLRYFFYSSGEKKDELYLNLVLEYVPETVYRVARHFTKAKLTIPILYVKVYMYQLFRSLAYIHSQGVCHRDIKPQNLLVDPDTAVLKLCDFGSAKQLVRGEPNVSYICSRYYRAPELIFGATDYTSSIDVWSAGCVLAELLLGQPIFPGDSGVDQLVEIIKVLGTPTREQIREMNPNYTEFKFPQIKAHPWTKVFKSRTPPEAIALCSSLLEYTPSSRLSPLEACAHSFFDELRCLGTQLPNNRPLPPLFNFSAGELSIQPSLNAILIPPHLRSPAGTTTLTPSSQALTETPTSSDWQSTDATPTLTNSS

d-U937 cells = assay: Cell viability: MTT assay; format: cell-based, human; settings: 1 μg/mL
Summary of the method: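 Differentiated U937 cells exposed to compound at 1 or 10 μg/mL, either 4 h in 5% FCS or 24 h in 10% FCS RPMI1640. MTT then added for 1 h, formazan dissolved in DMSO and read at 550 nm. Viability loss given as % versus 0.5% DMSO vehicle; apparent gains appear negative.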

GSK3α [5] = target: T2, GSK3α; assay: GSK 3α enzyme inhibition (FRET), Method 1; format: biochemical; settings: Table 4a1
Summary of the method: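 Compounds are tested at added-solution levels of 4, 0.4, 0.04 or 0.004 μg/mL against GSK3α, with a 2 hr RT preincubation. Kinase reaction with FRET peptide and ATP (8 μM and 40 μM as added) runs 1 hr, and phosphorylation is judged by the protease-sensitive FRET ratio.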

[6] = target: p38 MAPKα isoform (MAPK14) (Homo sapiens, UniProt Q16539); assay: p38 MAPKα enzyme inhibition (FRET, Z-LYTE), Method 1; format: biochemical; settings: Table 4a1
Sequence of p38 MAPKα isoform (MAPK14) (Q16539 whole entry, canonical isoform): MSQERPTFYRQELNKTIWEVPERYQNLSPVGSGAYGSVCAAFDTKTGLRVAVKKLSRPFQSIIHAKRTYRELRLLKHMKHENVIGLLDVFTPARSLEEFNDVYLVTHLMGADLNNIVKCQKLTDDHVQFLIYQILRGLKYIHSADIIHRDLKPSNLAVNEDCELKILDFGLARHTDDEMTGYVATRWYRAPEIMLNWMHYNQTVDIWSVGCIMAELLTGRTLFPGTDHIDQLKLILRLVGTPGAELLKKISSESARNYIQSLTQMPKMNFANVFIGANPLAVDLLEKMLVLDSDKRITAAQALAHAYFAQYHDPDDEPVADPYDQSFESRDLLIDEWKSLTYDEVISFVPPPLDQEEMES
Protocol: The enzyme inhibitory activities of compounds disclosed herein are determined by FRET using synthetic peptides labelled with both donor and acceptor fluorophores (Z-LYTE, Invitrogen Ltd., Paisley, UK).
The following two assay variants are used for determination of p38 MAPKα inhibition.
The inhibitory activities of test compounds against the p38 MAPKα isoform (MAPK14: Invitrogen), are evaluated indirectly by determining the level of activation/phosphorylation of the down-stream molecule, MAPKAP-K2. The p38 MAPKα protein (80 ng/mL, 2.5 μL) is mixed with the test compound (2.5 μL of either 4 μg/mL, 0.4 μg/mL, 0.04 μg/mL or 0.004 μg/mL) for 2 hr at RT. […] The mixture is incubated for 1 hr at RT. Development reagent (protease, 5 μL) is added for 1 hr prior to detection in a fluorescence microplate reader (Varioskan® Flash, ThermoFisher Scientific).
In all cases, the site-specific protease cleaves non-phosphorylated peptide only and eliminates the FRET signal. Phosphorylation levels of each reaction are calculated using the ratio of coumarin emission (donor) over fluorescein emission (acceptor), for which high ratios indicate high phosphorylation and low ratios indicate low phosphorylation levels.

[7] = tested on: ICAM-1 expression, BEAS2B cells; assay: Poly I:C-induced ICAM-1 expression in BEAS2B cells; format: cell-based; settings: Homo sapiens, BEAS-2B; read-out: Poly IC induced ICAM1 in BEAS2B, IC50
Summary of the method: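 BEAS2B human bronchial epithelial cells pre-incubated 2 h with compound, then transfected with poly I:C (1 μg/mL) plus Oligofectamine. After 18 h, cell-surface ICAM-1 read by cell-based ELISA (A450–655), normalised to Crystal Violet cell number (A595); inhibition calculated against vehicle control at each concentration.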

BDF1 mice = assay: TNBS-induced colitis in mice; format: in vivo, mouse; settings: TNBS; 2.5 mg/kg; 2 days
Protocol: (C) TNBS-Induced Colitis in Mice […] On Day 0 of the study TNBS (200 μL) is administered intra-colonically via a plastic catheter followed by BID dosing of the vehicle, reference or test compound for 2 or 4 days. During the study animals are weighed every day and stool observations are made and recorded as a score, based on stool consistency. At the time of sacrifice on Day 2 (or Day 4) the large intestine is removed and the length and weight recorded. Sections of the colon are taken for either MPO analysis to determine neutrophil infiltration or for histopathology involving scoring to determine disease severity.

[8] = Table 4a2, different laboratory
[9] = Table 4c2, different laboratory, read-out: IC50 Values for Inhibition of Cytokine Release, dU937 cells, IL-8

SMILES	IC50 (IFN gamma release, PBMCs) [nM]	IC50 (IL-2 release, PBMCs) [nM]	IC50 [1] [nM]	IC50 (cSrc; [8]) [nM]	IC50 (IL-8 release, PBMCs) [nM]	IC50 [2, 9] [nM]	inhibition at 5 µg/mL (PBMC cells) [%]	IC50 (Syk; [8]) [nM]	IC50 (IL-8 release, HT29 cells) [nM]	IC50 [3] [nM]	IC50 (GSK3α [4]) [nM]	also measured
C#Cc1cc(Nc2nccc(Oc3ccc(NC(=O)Nc4cc(C(C)(C)C)nn4-c4ccc(C)cc4)c4ccccc34)n2)cc(C(=O)N[C@@H](C)CN2CCOCC2)c1 [Example 81, (S)-3-((4-((4-(3-(3-(tert-Butyl)-1-(p-tolyl)-1H-pyrazol-5-yl)ureido)naphthalen-1-yl)oxy)pyrimidin-2-yl)amino)-5-ethynyl-N-(1-morpholinopropan-2-yl)benzamide]	1.8	112	1.4	21	3.2	1.5	-2.6	61	7.4	> 3000	10400	
COc1ccc(C(=O)NCCN(C)C)cc1Nc1nccc(Oc2ccc(NC(=O)Nc3cc(C(C)(C)C)nn3-c3ccc(C)cc3)c3ccccc23)n1 [Example 29, 3-((4-((4-(3-(3-(tert-butyl)-1-(p-tolyl)-1H-pyrazol-5-yl)ureido)naphthalen-1-yl)oxy)pyrimidin-2-yl)amino)-N-(2-(dimethylamino)ethyl)-4-methoxybenzamide]												Cell viability at time point in d-U937 cells, 4 h (d-U937 cells; 4 h): −ve (−ve and +ve indicate that the value is below and above respectively, the no significant effect threshold, defined as 30% inhibition at 1 μg/mL at the time point indicated); Cell viability at time point in d-U937 cells, 24 h (d-U937 cells; 24 h): −ve (−ve and +ve indicate that the value is below and above respectively, the no significant effect threshold, defined as 30% inhibition at 1 μg/mL at the time point indicated); IC50 (GSK3α [5]): 3210 nM; EC50 ([1]; relative to 10 μg/mL BIRB796, Table 4c1, read-out: LPS Induced Release of Cytokine in d-U937 Cells, TNFα REC50): 3.8 nM; IC50 (cSrc; Table 4a1): < 1 nM; IC50 ([2]; Table 4c1, read-out: LPS Induced Release of Cytokine in d-U937 Cells, IL-8 IC50): 13.7 nM; IC50 [6]: < 1 nM; IC50 [7]: 15.1 nM; IC50 (Syk; Table 4a1): 147 nM
CCCC1O[C@@H]2C[C@H]3[C@@H]4CCC5=CC(=O)C=C[C@]5(C)[C@H]4[C@@H](O)C[C@]3(C)[C@]2(C(=O)CO)O1 (stereo partly drawn) [Budesonide, reference compound]												LP inflammation (BDF1 mice): 2.5 ± 0.4; Ulcer grade (BDF1 mice): 2.9 ± 0.6
C#Cc1cc(Nc2nccc(Oc3ccc(NC(=O)Nc4cc(C(C)(C)C)nn4-c4ccc(C)cc4)c4ccccc34)n2)cc(C(=O)NCCN2CCOCC2)c1 [Example 75, 3-((4-((4-(3-(3-(tert-Butyl)-1-(p-tolyl)-1H-pyrazol-5-yl)ureido)naphthalen-1-yl)oxy)pyrimidin-2-yl)amino)-5-ethynyl-N-(2-morpholinoethyl)benzamide]	3	76.9	0.4	11	1	0.3	2.8	28	1.3	> 3000	1370	
